The record followed here is PubChem BioAssay AID1963870 (Molecular Pharmacology Branch, DTP, NCI, 2024).

The assay relates to 292921-168-R-J2-PDC KRAS tumor spheroid viability. Nature of the assay: Anticancer human tumor 292921-168-R-J2-PDC patient-derived pancreatic carcinoma cell line growth inhibition [KRAS2]. The conditions noted are these: spheroids with HUVEC and MSC; for viability, T/C: stronger effect = lower value. A digest of the protocol: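 KRAS-mutant tumor cells were grown as spheroids with HUVEC endothelial cells and human MSCs as stroma. Targeted agents were tested alone and with KRAS pathway inhibitors. Doses started at or near clinical Cmax, or 10 microM, descending half-log.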

Where [1] appears, read: curve of first compound, second compound 0.1 µM.
Setting [2] is: curve of first compound, second compound 0.316 µM.
Setting [3] is: curve of first compound, second compound 1 µM.
Where [4] appears, read: curve of first compound, second compound 3.16 µM.
The mark [5] stands for this setting: second compound 0.1 µM, first compound 0.0316 µM.
[6] abbreviates: second compound 0.1 µM, first compound 0.1 µM.
[7] abbreviates: second compound 0.316 µM, first compound 0.0316 µM.
The mark [8] stands for this setting: second compound 0.316 µM, first compound 0.1 µM.
[9] abbreviates: second compound 1 µM, first compound 0.0316 µM.
[10] abbreviates: second compound 1 µM, first compound 0.1 µM.
[11] abbreviates: second compound 3.16 µM, first compound 0.0316 µM.
Where [12] appears, read: second compound 3.16 µM, first compound 0.1 µM.
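Further: drug exposure lasted seven days after spheroids formed for three days.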
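Wherever viability, T/C is given: percent of DMSO vehicle control viability which is 100%.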

For orientation: IC50 means the concentration needed to halve the response being measured. A word on the viability, T/C: it is the result in the treated group divided by that in the control group, in per cent. For `Cn1ncnc1[C@H]1c2n[nH]c(=O)c3cc(F)cc(c23)N[C@@H]1c1ccc(F)cc1` + C=CC(=O)N1CCN(c2nc(OCC3CCCN3C)nc3c2CCN(c2cccc4cccc(C)c24)C3)CC1CC#N, the IC50 runs as follows: (curve of first compound, second compound 0.0316 µM) over 100 nM; under setting [1], over 100 nM; under setting [2], 81.9 nM; under setting [3], under 0.316 nM; under setting [4], under 0.316 nM. The viability, T/C is 99.5% (second compound 0.0316 µM, first compound 0.000316 µM); 93% (second compound 0.0316 µM, first compound 0.001 µM); 93.2% (second compound 0.0316 µM, first compound 0.00316 µM); 93.6% (second compound 0.0316 µM, first compound 0.01 µM); 81.7% (second compound 0.0316 µM, first compound 0.0316 µM); 67.3% (second compound 0.0316 µM, first compound 0.1 µM). The viability, T/C runs as follows: (second compound 0.1 µM, first compound 0.000316 µM) 96.7%; (second compound 0.1 µM, first compound 0.001 µM) 93.5%; (second compound 0.1 µM, first compound 0.00316 µM) 91.7%; (second compound 0.1 µM, first compound 0.01 µM) 83.6%; under setting [5], 77.6%; under setting [6], 63.7%. Further, the viability, T/C was 88.1% (second compound 0.316 µM, first compound 0.000316 µM); 82.1% (second compound 0.316 µM, first compound 0.001 µM); 72.9% (second compound 0.316 µM, first compound 0.00316 µM); 74.9% (second compound 0.316 µM, first compound 0.01 µM); 65% under setting [7]; 46.4% under setting [8]. For the same compound, the viability, T/C (second compound 1 µM, first compound 0.000316 µM) was 42.1%; the viability, T/C (second compound 1 µM, first compound 0.001 µM) is 42.9%; the viability, T/C (second compound 1 µM, first compound 0.00316 µM) is 37.1%; the viability, T/C (second compound 1 µM, first compound 0.01 µM) is 32.5%; the viability, T/C under setting [9] is 29.8%; the viability, T/C under setting [10] is 28.3%. Also, the viability, T/C by setting is: (second compound 3.16 µM, first compound 0.000316 µM) 0.3%; (second compound 3.16 µM, first compound 0.001 µM) 0.12%; (second compound 3.16 µM, first compound 0.00316 µM) 0.12%; (second compound 3.16 µM, first compound 0.01 µM) 0.11%; under setting [11], 0.13%; under setting [12], 0.17%.

On to `COc1cc(Nc2ncc3c(n2)-c2ccc(Cl)cc2C(c2c(F)cccc2OC)=NC3)ccc1C(=O)O` + CC1OCC2(CCN(c3cnc(Sc4ccnc(N)c4Cl)c(N)n3)CC2)C1N, for which the IC50 runs as follows: under setting [1], under 31.6 nM; under setting [2], under 31.6 nM; under setting [3], under 31.6 nM; under setting [4], under 31.6 nM; (curve of first compound, second compound 10 µM) under 31.6 nM. Moreover, the viability, T/C is 22.8% under setting [5]; 21.9% under setting [6]; 22.8% (second compound 0.1 µM, first compound 0.316 µM); 22.3% (second compound 0.1 µM, first compound 1 µM); 17.3% (second compound 0.1 µM, first compound 3.16 µM); 14.1% (second compound 0.1 µM, first compound 10 µM). The viability, T/C reads like this: under setting [7], 21.1%; under setting [8], 18.9%; (second compound 0.316 µM, first compound 0.316 µM) 22.8%; (second compound 0.316 µM, first compound 1 µM) 19.9%; (second compound 0.316 µM, first compound 3.16 µM) 16.8%; (second compound 0.316 µM, first compound 10 µM) 10.6%. Moreover, the viability, T/C was 18.3% under setting [9]; 15.5% under setting [10]; 18.5% (second compound 1 µM, first compound 0.316 µM); 15.5% (second compound 1 µM, first compound 1 µM); 13.6% (second compound 1 µM, first compound 3.16 µM); 10.8% (second compound 1 µM, first compound 10 µM). Further, the viability, T/C was 18.1% under setting [11]; 16.4% under setting [12]; 16.9% (second compound 3.16 µM, first compound 0.316 µM); 14.9% (second compound 3.16 µM, first compound 1 µM); 12.8% (second compound 3.16 µM, first compound 3.16 µM); 10.2% (second compound 3.16 µM, first compound 10 µM). Moreover, the viability, T/C runs as follows: (second compound 10 µM, first compound 0.0316 µM) 16%; (second compound 10 µM, first compound 0.1 µM) 16.7%; (second compound 10 µM, first compound 0.316 µM) 16.1%; (second compound 10 µM, first compound 1 µM) 15.7%; (second compound 10 µM, first compound 3.16 µM) 14%; (second compound 10 µM, first compound 10 µM) 10.3%.

Consider `COc1cc(Nc2ncc3c(n2)-c2ccc(Cl)cc2C(c2c(F)cccc2OC)=NC3)ccc1C(=O)O`, for which the viability, T/C is, setting by setting: (compound 0.0316 µM) 30.3% [middle of 5 runs]; (compound 0.1 µM) 28% [middle of 5 runs]; (compound 0.316 µM) 30.6% [middle of 5 runs]; (compound 1 µM) 28.6% [middle of 5 runs]; (compound 3.16 µM) 23.7% [middle of 5 runs]; (compound 10 µM) 17.8% [middle of 5 runs]. The IC50 (curve of compound) was under 31.6 nM.

`CNCc1ccccc1-c1csc(C(C)Nc2nc(C)nc3cc(OC)c(OC)cc23)c1` (stereo unspecified): the viability, T/C is 88.7% [middle of 16 runs] (compound 0.316 µM) and 0.15% [middle of 14 runs] (compound 10 µM). The concentration for half-maximal inhibition (IC50) is, setting by setting: (compound alone, run of 08/26/2021) 1.28 µM [middle of 5 runs]; (compound alone, run of 09/02/2021) 1.34 µM [middle of 5 runs].
